According to PubChem BioAssay AID248 (DTP/NCI, 2004):
Where “and” joins values, the source holds several entries; their conditions need not be identical. Equal values may be shown once. Toxic doses and inconclusive results are not listed. Cut-off read from the data, not from the text of the source: active = T/C of 150% or more; inactive = T/C below 125%.

Tested on: L1210 leukemia ip in BDF1 mice, survival T/C
Assay: NCI In Vivo Anticancer Drug Screen. Data for tumor model L1210 Leukemia (intraperitoneal) in B6D2F1 (BDF1) mice
Details: endpoint: mean survival time, higher = longer survival
In short: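 Antitumor effect is assessed in tumor-bearing animals. Survival in the compound arm is compared with a vehicle-dosed control arm and expressed as their quotient.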

[1] = dose: 100.0 mg/kg/injection, schedule: Q01DX001 (ip), vehicle: Klucel (hydroxypropylcellulose) (HPC)
[2] = dose: 100.0 mg/kg/injection, schedule: Q04DX003 (ip), vehicle: saline
[3] = dose: 200.0 mg/kg/injection, schedule: Q04DX003 (ip), vehicle: saline
[4] = dose: 400.0 mg/kg/injection, schedule: Q04DX003 (ip), vehicle: saline

Measured: T/C

O=C(Nc1ccccc1F)OCCOc1ccccc1
inactive: [1] 97 % of control | dose: 100.0 mg/kg/injection, schedule: Q01DX009 (ip), vehicle: Klucel (hydroxypropylcellulose) (HPC) 95 % of control and 97 % of control | dose: 100.0 mg/kg/injection, schedule: Q04DX002 (ip), vehicle: Klucel (hydroxypropylcellulose) (HPC) 98 % of control and 115 % of control | dose: 200.0 mg/kg/injection, schedule: Q01DX001 (ip), vehicle: Klucel (hydroxypropylcellulose) (HPC) 97 % of control | dose: 200.0 mg/kg/injection, schedule: Q01DX009 (ip), vehicle: Klucel (hydroxypropylcellulose) (HPC) 95 % of control and 102 % of control | dose: 200.0 mg/kg/injection, schedule: Q04DX002 (ip), vehicle: Klucel (hydroxypropylcellulose) (HPC) 106 % of control and 115 % of control | dose: 400.0 mg/kg/injection, schedule: Q01DX001 (ip), vehicle: Klucel (hydroxypropylcellulose) (HPC) 94 % of control | dose: 400.0 mg/kg/injection, schedule: Q01DX009 (ip), vehicle: Klucel (hydroxypropylcellulose) (HPC) 95 % of control and 103 % of control | dose: 400.0 mg/kg/injection, schedule: Q04DX002 (ip), vehicle: Klucel (hydroxypropylcellulose) (HPC) 100 % of control and 103 % of control

NC1=NCc2ccccc21
inactive: dose: 12.5 mg/kg/injection, schedule: Q04DX003 (ip), vehicle: saline 102 % of control | dose: 25.0 mg/kg/injection, schedule: Q04DX003 (ip), vehicle: saline 93 % of control | dose: 50.0 mg/kg/injection, schedule: Q04DX003 (ip), vehicle: saline 91 % of control

CCC(C)C1NC(=O)C2C(CCN2C(=O)C(NC(=O)C(Cc2ccccc2)N(C)C)C(C)CC)Oc2ccc(cc2)/C=C\NC1=O (stereo not drawn)
inactive: [2] 94 % of control | [3] 97 % of control | [4] 92 % of control

COC(CN)C(Cl)(Cl)Cl (stereo not drawn)
inactive: dose: 100.0 mg/kg/injection, schedule: Q01DX001 (ip), vehicle: saline 98 % of control | dose: 100.0 mg/kg/injection, schedule: Q04DX002 (ip), vehicle: saline 96 % of control and 89 % of control | [2] 98 % of control | dose: 200.0 mg/kg/injection, schedule: Q01DX001 (ip), vehicle: saline 107 % of control | dose: 200.0 mg/kg/injection, schedule: Q04DX002 (ip), vehicle: saline 94 % of control and 100 % of control | [3] 107 % of control | dose: 400.0 mg/kg/injection, schedule: Q01DX001 (ip), vehicle: saline 96 % of control | dose: 400.0 mg/kg/injection, schedule: Q04DX002 (ip), vehicle: saline 96 % of control and 100 % of control | [4] 106 % of control

Cc1ccc(-n2c(=O)c(N=Nc3ccc(Cl)cc3)c(O)n(-c3ccccc3Cl)c2=S)cc1
inactive: dose: 25.0 mg/kg/injection, schedule: Q01DX001 (ip), vehicle: Klucel (hydroxypropylcellulose) (HPC) 97 % of control | dose: 50.0 mg/kg/injection, schedule: Q01DX001 (ip), vehicle: Klucel (hydroxypropylcellulose) (HPC) 101 % of control | [1] 92 % of control

O=P(NC1CCCCC1)(OCc1ccccc1)N(CCCl)CCCl (stereo not drawn)
inactive: dose: 10.0 mg/kg/injection, schedule: Q01DX Z (ip), vehicle: water 98 % of control | dose: 20.0 mg/kg/injection, schedule: Q01DX Z (ip), vehicle: water 91 % of control | dose: 40.0 mg/kg/injection, schedule: Q01DX Z (ip), vehicle: water 96 % of control | dose: 80.0 mg/kg/injection, schedule: Q01DX009 (ip), vehicle: water 93 % of control | dose: 160.0 mg/kg/injection, schedule: Q01DX009 (ip), vehicle: water 89 % of control

CC(=O)c1ccc(S(=O)(=O)NCCCc2c(C)nc(NS(=O)(=O)c3ccc(C(C)=O)cc3)[nH]c2=O)cc1
inactive: dose: 100.0 mg/kg/injection, schedule: Q01DX001 (ip), vehicle: carboxymethylcellulose (CMC) 98 % of control | dose: 200.0 mg/kg/injection, schedule: Q01DX001 (ip), vehicle: carboxymethylcellulose (CMC) 96 % of control | dose: 400.0 mg/kg/injection, schedule: Q01DX001 (ip), vehicle: carboxymethylcellulose (CMC) 93 % of control

CCCCOB(OCCCC)c1ccc(SC)cc1
inactive: dose: 100.0 mg/kg/injection, schedule: Q04DX003 (ip), vehicle: alcohol 111 % of control | dose: 200.0 mg/kg/injection, schedule: Q04DX003 (ip), vehicle: alcohol 103 % of control | dose: 400.0 mg/kg/injection, schedule: Q04DX003 (ip), vehicle: alcohol 118 % of control

c1ccc(CC[P+](c2ccccc2)(c2ccccc2)c2ccccc2)cc1
inactive: dose: 0.78 mg/kg/injection, schedule: Q01DX009 (ip), vehicle: Klucel (hydroxypropylcellulose) (HPC) 97 % of control | dose: 1.56 mg/kg/injection, schedule: Q01DX009 (ip), vehicle: Klucel (hydroxypropylcellulose) (HPC) 96 % of control | dose: 3.13 mg/kg/injection, schedule: Q01DX009 (ip), vehicle: Klucel (hydroxypropylcellulose) (HPC) 92 % of control | dose: 12.5 mg/kg/injection, schedule: Q04DX003 (ip), vehicle: Klucel (hydroxypropylcellulose) (HPC) 101 % of control | dose: 25.0 mg/kg/injection, schedule: Q04DX003 (ip), vehicle: Klucel (hydroxypropylcellulose) (HPC) 103 % of control
